Test results reported in ChEMBL document CHEMBL1156904, “Part II: piperazinyl-glutamate-pyridines as potent orally bioavailable P2Y12 antagonists for inhibition of platelet aggregation” (Bioorg Med Chem Lett, 2010).
≈ marks a conversion by molar mass, not a printed value.

Experiments:
[1] = Antiplatelet activity in human platelet rich plasma assessed as inhibition of ADP-induced platelet aggregation; type: functional
[2] = Antiplatelet activity in human platelet rich plasma assessed as inhibition of ADP-induced platelet aggregation relative to AZD-6140; type: functional
[3] = Metabolic stability in rat microsomes; type: ADME, Microsome
[4] = Metabolic stability in human microsomes; type: ADME, Microsome
[5] = Clearance in Beagle dog at 0.2 mg/kg, iv and 0.2 mg/kg, po; type: ADME, organism-based, Canis lupus familiaris; conditions: in vivo
[6] = Volume of distribution at steady state in Beagle dog at 0.2 mg/kg, iv and 0.2 mg/kg, po; type: ADME, organism-based, Canis lupus familiaris; conditions: in vivo, read-out: Vdss
[7] = Effective half life in Beagle dog at 0.2 mg/kg, iv and 0.2 mg/kg, po; type: ADME, organism-based, Canis lupus familiaris; conditions: in vivo
[8] = target: T1, P2Y purinoceptor 12 (Homo sapiens, UniProt Q9H244); assay: Inhibition of human P2Y12 receptor expressed in CHO cells
T1 sequence (Q9H244 whole entry): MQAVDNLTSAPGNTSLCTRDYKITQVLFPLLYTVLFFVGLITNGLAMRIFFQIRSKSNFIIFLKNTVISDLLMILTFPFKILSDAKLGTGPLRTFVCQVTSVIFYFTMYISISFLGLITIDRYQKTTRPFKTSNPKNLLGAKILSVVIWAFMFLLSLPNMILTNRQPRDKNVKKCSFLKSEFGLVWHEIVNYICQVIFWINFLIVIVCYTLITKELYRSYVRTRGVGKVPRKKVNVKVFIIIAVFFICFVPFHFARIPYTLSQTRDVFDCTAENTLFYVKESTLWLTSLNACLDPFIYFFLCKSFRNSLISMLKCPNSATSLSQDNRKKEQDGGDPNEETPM

[9] = Clearance in Sprague-Dawley rat at 2 mg/kg, iv and 5 mg/kg, po; type: ADME, organism-based; conditions: in vivo
[10] = Volume of distribution at steady state in Sprague-Dawley rat at 2 mg/kg, iv and 5 mg/kg, po; type: ADME, organism-based; conditions: in vivo, read-out: Vdss
[11] = Effective half life in Sprague-Dawley rat at 2 mg/kg, iv and 5 mg/kg, po; type: ADME, organism-based; conditions: in vivo, read-out: t1/2eff (converted)
[12] = target: Voltage-gated inwardly rectifying potassium channel KCNH2 (Homo sapiens, UniProt Q12809); assay: Inhibition of human ERG
Voltage-gated inwardly rectifying potassium channel KCNH2, sequence (Q12809 whole entry): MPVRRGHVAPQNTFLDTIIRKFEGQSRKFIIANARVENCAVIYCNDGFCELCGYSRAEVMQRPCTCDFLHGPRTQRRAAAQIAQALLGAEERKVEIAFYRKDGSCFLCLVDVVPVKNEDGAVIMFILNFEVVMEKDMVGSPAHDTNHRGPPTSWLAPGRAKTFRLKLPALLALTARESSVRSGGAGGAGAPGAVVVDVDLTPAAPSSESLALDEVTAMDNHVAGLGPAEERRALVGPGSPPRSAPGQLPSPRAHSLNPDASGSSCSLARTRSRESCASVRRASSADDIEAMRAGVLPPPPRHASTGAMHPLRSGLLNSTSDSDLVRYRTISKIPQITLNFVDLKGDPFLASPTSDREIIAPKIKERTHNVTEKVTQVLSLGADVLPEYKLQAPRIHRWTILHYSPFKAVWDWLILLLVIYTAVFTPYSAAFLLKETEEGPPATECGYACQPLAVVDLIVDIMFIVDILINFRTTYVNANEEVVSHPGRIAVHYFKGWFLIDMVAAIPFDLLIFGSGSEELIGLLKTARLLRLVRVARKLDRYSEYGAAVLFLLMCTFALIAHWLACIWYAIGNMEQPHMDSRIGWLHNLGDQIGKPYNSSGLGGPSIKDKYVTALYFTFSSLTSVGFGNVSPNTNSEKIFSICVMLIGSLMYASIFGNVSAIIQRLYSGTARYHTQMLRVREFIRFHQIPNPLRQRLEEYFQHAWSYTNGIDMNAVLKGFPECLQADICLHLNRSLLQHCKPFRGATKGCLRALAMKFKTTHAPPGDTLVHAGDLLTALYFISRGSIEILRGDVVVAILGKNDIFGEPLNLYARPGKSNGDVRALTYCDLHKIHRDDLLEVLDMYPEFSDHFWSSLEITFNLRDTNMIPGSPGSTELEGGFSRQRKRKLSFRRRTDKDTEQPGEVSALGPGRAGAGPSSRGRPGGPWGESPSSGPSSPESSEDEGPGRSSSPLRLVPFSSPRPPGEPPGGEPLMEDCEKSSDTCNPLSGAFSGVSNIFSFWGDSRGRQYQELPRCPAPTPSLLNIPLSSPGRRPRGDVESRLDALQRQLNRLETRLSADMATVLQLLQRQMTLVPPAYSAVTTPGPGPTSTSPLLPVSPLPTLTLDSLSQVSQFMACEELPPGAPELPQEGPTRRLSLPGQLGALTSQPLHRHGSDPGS

[13] = system: Rattus norvegicus; assay: Toxicity in rat administered as single dose; type: organism-based; conditions: in vivo
[14] = Solubility at pH 2.0; type: physicochemical; conditions: buffer
[15] = Solubility at pH 6.5; type: physicochemical; conditions: buffer
[16] = Solubility at pH 9.0; type: physicochemical; conditions: buffer
[17] = Antiplatelet activity in human platelet rich plasma assessed as inhibition of ADP-induced platelet aggregation by chronolog PRP aggregometry assay; type: functional
[18] = target: T1, P2Y purinoceptor 12; assay: Inhibition of human P2Y12 receptor expressed in CHO cells in presence of 0.4% human serum albumin
[19] = Clearance in Beagle dog at 0.5 mg/kg, iv and 1 mg/kg, po; type: ADME, organism-based, Canis lupus familiaris; conditions: in vivo
[20] = Volume of distribution at steady state in Beagle dog at 0.5 mg/kg, iv and 1 mg/kg, po; type: ADME, organism-based, Canis lupus familiaris; conditions: in vivo, read-out: Vdss
[21] = Effective half life in Beagle dog at 0.5 mg/kg, iv and 1 mg/kg, po; type: ADME, organism-based, Canis lupus familiaris; conditions: in vivo
[22] = Protein binding in human plasma assessed as fraction unbound at 2 uM
[23] = Protein binding in human plasma assessed as fraction unbound at 10 uM
[24] = Protein binding in human plasma assessed as fraction unbound at 0.2 uM
[25] = in vivo; conditions: Sprague-Dawley, rat, po, 5 mg/kg
[26] = system: Rattus norvegicus; assay: Toxicity in rat administered as 7 day repeat dose; type: organism-based; conditions: in vivo, 168 h

| Structure (SMILES) | IC50 [1] [nM] | fold change (FC) [2] | Stability [3] | Stability [4] | Ki [8] [nM] | clearance [9] [mL/min/kg] | Vd [10] [L/kg] | half-life [11] [min] | also measured |
| --- | --- | --- | --- | --- | --- | --- | --- | --- | --- |
| CCCCCOC(=O)N1CCN(C(=O)[C@H](CCC(=O)O)NC(=O)c2cc(N3CCC(COC)CC3)cc(-c3ccccc3)n2)CC1 | 3900 | 3.3 | Stable | Stable |  |  |  |  | clearance [5]: 1 mL/min/kg; Vd [6]: 0.14 L/kg; half-life [7]: 90 min |
| CCCCCOC(=O)N1CCN(C(=O)[C@H](CCC(=O)O)NC(=O)c2cc(N3CCC(C(=O)N4CCC4)CC3)cc(-c3ccccc3)n2)CC1 | 410 | 0.64 | Stable | Stable | 1.2 | 9 | 0.2 | 18 |  |
| CCCCCOC(=O)N1CCN(C(=O)[C@H](CCC(=O)O)NC(=O)c2cc(N3CCCC(CN4CCCC4)C3)cc(-c3ccccc3)n2)CC1 (some centres not stated) | 1700 | 1.5 | Stable | Stable | 7.3 | 47 | 1.8 | 24 |  |
| CCCCOC(=O)N1CCN(C(=O)[C@H](CCC(=O)O)NC(=O)c2cc(N3CCC(C(=O)N4CCCC4)CC3)cc(-c3ccccc3)n2)CC1 | 360 | 0.54 | Stable | Stable | 2.1 | 5 | 0.7 | 90 | Kb [1]: 49 nM; IC50 [12]: > 90000 nM; Activity [13]: Non-toxic; solubility [14]: 921 µM (≈ 623 µg/mL); solubility [15]: 195 µM (≈ 132 µg/mL); solubility [16]: 969 µM (≈ 656 µg/mL); IC50 [17]: 255 nM; Ki [18]: 6.3 nM; clearance [19]: 3 mL/min/kg; Vd [20]: 0.22 L/kg; half-life [21]: 48 min; fraction unbound at 2 µM [22]: 0.044; fraction unbound at 10 µM [23]: 0.033; fraction unbound at 0.2 µM [24]: 0.034 |
| CCCCCOC(=O)N1CCN(C(=O)[C@H](CCC(=O)O)NC(=O)c2cc(N3CCC(C(N)=O)CC3)cc(-c3ccccc3)n2)CC1 | 2400 | 0.9 | Stable | Stable | 6.5 | 44 | 2.2 | 36 | bioavailability [25]: 2% |
| CCCCCOC(=O)N1CCN(C(=O)[C@H](CCC(=O)O)NC(=O)c2cc(N3CC[C@H](OCC(=O)N(C)C)C3)cc(-c3ccccc3)n2)CC1 | 660 | 0.75 | Stable | Stable | 5 | 41 | 0.8 | 12 |  |
| CCCCCOC(=O)N1CCN(C(=O)[C@H](CCC(=O)O)NC(=O)c2cc(N3CCC(CCN(C)C)CC3)cc(-c3ccccc3)n2)CC1 | 390 | 0.54 | Stable | Stable | 12 | 145 | 5.1 | 24 |  |
| CCCCCOC(=O)N1CCN(C(=O)[C@H](CCC(=O)O)NC(=O)c2cc(N3CCC(C(=O)N(CC)CC)CC3)cc(-c3ccccc3)n2)CC1 | 520 | 0.65 | Stable | Stable | 4 | 13 | 2.5 | 36 | clearance [5]: 2 mL/min/kg; Vd [6]: 0.12 L/kg; half-life [7]: 42 min |
| CCCCOC(=O)N1CCN(C(=O)[C@H](CCC(=O)O)NC(=O)c2cc(N3CCC(C(=O)N(CC)CC)CC3)cc(-c3ccccc3)n2)CC1 | 430 | 0.71 | Stable | Stable | 1.1 | 24 | 0.9 | 24 |  |
| CCCCCOC(=O)N1CCN(C(=O)[C@H](CCC(=O)O)NC(=O)c2cc(N3CCN(C)CC3)cc(-c3ccccc3)n2)CC1 | 2300 | 2.5 | Stable | Stable | 15 | 141 | 10 | 48 |  |
| CCCCCOC(=O)N1CCN(C(=O)[C@H](CCC(=O)O)NC(=O)c2cc(N3CC[C@@H](OCC(=O)N(CC)CC)C3)cc(-c3ccccc3)n2)CC1 | 330 | 0.38 | Stable | Stable | 3.5 | 87 | 2.1 | 18 |  |
| CCCCCOC(=O)N1CCN(C(=O)[C@H](CCC(=O)O)NC(=O)c2cc(N3CCC(C(=O)N4CCCC4)CC3)cc(-c3ccccc3)n2)CC1 | 400 | 0.65 | Stable | Stable | 2.8 | 5 | 0.5 | 66 | Kb [1]: 68 nM; IC50 [12]: > 90000 nM; Activity [26]: Non-toxic; solubility [14]: 299 µM (≈ 207 µg/mL); solubility [15]: 48 µM (≈ 33.2 µg/mL); solubility [16]: 1290 µM (≈ 892 µg/mL); IC50 [17]: 325 nM; Ki [18]: 6.7 nM; clearance [19]: 2 mL/min/kg; Vd [20]: 0.18 L/kg; half-life [21]: 60 min; fraction unbound at 2 µM [22]: 0.057; fraction unbound at 10 µM [23]: 0.061; fraction unbound at 0.2 µM [24]: 0.053 |
